Data: US20180030091A1, “COLLAGEN-BINDING SYNTHETIC PEPTIDOGLYCANS FOR USE IN VASCULAR INTERVENTION” (Purdue Research Foundation, priority 2010, published 2018)
“Also recorded” adds a separate entry of the source. Values belong to the substance of their own block, whether it stands above or below them. Where no end group is shown, it is not given here.

How the values were obtained:
Fibrillar collagen = assay: Binding affinity of biotin labeled peptidoglycan to fibrillar collagen; conditions: biotin labeled peptidoglycans, fitted saturation binding curves
Method: Fibrillar collagen (Chronolog, Havertown, Pa.) was coated onto the surface of a 96-well high bind plate (Costar) at a concentration of 50 μg/mL diluted in isotonic glucose. Plates were covered and incubated overnight at 4° C. Unbound collagen was removed by rinsing 3 times with 1×PBS pH 7.4. Plates were then blocked with 1% BSA for 3 hours at room temperature. Peptidoglycan was dissolved at varying concentrations in 1×PBS pH 7.4 containing 1% BSA and were immediately added to the collagen surfaces, and allowed to incubate for 15 min at room temperature. Plates were then rinsed 3 times with 1×PBS pH 7.4 containing 1% BSA. Streptavidin-HRP solution (R&D Systems, Minneapolis, Minn.) was then added to the plates and incubated for 20 minutes at room temperature. […] The color evolving reaction was stopped with 50 μL 2N sulfuric acid and absorbance was measured at 450 nm using an M5 UV Vis Spectrophotometer (Molecular Devices). Plate imperfections (540 nm) were subtracted from absorbance values.
The binding affinities of biotin labeled peptidoglycans, labeled using protocols known in the art, DS-SILY4 and DS-SILY18 were calculated by fitting the saturation binding curves and calculating the inflection point. […]

collagen [1] = assay: Cryo-SEM measurement of fibril diameters; conditions: cryo-SEM images at 20,000×
Method: Using a modification of EXAMPLE 18 fibril diameters were measured by 8cryo-SEM. Fibril diameters from cryo-SEM images taken at 20,000× were measured using ImageJ software (NIH). At least 45 fibrils were measured for each treatment. Results are presented as Avg.±S.E. Statistical analysis was performed using DesignExpert software (StatEase) with α=0.05.

[2] = system: Human coronary artery smooth muscle cells (HCA SMC); assay: Gel compaction by smooth muscle cells in collagen gels; format: cell-based
Method: Human coronary artery smooth muscle cells (HCA SMC) (Cascade Biologics) were cultured in growth medium (Medium 231 supplemented with smooth muscle growth factor). Cells from passage 3 were used for all experiments. Differentiation medium (Medium 231 supplemented with 1% FBS and 1×pen/strep) was used for all experiments unless otherwise noted.
Collagen gels were prepared with each additive as described with the exception that the 1×PBS sample addition was omitted to accommodate the addition of cells in media. After incubating on ice for 30 min, HCA SMCs in differentiation medium were added to the gel solutions to a final concentration of 1×10^6 cells/mL. Gels were formed in quadruplicate in 48-well non-tissue culture treated plates (Costar) for 6 hrs before adding 500 μL/well differentiation medium. Gels were freed from the well edges after 24 hrs. Medium was changed every 2-3 days and images for compaction were taken at the same time points using a Gel Doc System (Bio-Rad). The cross-sectional area of circular gels correlating to degree of compaction was determined using ImageJ software (NIH). Gels containing no cells were used as a negative control and cells in collagen gels absent additive were used as a positive control. By day 10 all gels had compacted to approximately 10% of the original gel area, and differences between additives were small.

collagen [3] = molecular target: T1, collagen (Bos taurus, UniProt P02453+P02465); assay: Cryo-SEM measurement of fibril density; conditions: 10:1 molar ratio, cryo-SEM 10,000×
T1 construct: purchased Inamed, Freemont, Calif; (Nutragen)
T1 sequence (P02453 162-1217 limits assumed): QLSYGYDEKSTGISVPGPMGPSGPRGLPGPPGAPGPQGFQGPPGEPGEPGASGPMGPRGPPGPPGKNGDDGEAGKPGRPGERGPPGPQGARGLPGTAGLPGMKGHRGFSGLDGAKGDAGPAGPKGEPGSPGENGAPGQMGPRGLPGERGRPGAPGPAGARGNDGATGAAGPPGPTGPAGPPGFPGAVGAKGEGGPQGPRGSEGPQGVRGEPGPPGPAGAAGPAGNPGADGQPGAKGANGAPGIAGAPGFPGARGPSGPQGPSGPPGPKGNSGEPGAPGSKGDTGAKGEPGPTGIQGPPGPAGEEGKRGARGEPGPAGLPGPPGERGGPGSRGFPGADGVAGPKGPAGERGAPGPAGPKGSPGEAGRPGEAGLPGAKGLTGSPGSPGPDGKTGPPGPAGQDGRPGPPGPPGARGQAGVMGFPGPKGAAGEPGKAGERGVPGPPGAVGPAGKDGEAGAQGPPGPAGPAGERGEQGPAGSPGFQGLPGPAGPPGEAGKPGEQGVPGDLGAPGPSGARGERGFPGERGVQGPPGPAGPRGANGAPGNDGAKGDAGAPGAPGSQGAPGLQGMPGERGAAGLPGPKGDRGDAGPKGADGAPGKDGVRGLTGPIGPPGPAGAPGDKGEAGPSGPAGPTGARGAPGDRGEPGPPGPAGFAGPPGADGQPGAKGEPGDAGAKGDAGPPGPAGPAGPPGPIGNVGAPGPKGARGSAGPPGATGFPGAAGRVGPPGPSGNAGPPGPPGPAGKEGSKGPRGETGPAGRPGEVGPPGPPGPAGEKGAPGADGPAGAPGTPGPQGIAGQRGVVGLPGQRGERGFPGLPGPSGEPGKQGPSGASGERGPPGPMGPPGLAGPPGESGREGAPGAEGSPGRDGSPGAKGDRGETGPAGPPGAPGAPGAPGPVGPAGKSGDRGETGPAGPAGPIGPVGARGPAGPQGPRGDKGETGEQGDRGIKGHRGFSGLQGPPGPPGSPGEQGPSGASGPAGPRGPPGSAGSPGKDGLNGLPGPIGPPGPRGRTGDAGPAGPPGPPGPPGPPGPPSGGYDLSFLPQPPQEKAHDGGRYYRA
T1 sequence (P02465 80-1117 limits assumed): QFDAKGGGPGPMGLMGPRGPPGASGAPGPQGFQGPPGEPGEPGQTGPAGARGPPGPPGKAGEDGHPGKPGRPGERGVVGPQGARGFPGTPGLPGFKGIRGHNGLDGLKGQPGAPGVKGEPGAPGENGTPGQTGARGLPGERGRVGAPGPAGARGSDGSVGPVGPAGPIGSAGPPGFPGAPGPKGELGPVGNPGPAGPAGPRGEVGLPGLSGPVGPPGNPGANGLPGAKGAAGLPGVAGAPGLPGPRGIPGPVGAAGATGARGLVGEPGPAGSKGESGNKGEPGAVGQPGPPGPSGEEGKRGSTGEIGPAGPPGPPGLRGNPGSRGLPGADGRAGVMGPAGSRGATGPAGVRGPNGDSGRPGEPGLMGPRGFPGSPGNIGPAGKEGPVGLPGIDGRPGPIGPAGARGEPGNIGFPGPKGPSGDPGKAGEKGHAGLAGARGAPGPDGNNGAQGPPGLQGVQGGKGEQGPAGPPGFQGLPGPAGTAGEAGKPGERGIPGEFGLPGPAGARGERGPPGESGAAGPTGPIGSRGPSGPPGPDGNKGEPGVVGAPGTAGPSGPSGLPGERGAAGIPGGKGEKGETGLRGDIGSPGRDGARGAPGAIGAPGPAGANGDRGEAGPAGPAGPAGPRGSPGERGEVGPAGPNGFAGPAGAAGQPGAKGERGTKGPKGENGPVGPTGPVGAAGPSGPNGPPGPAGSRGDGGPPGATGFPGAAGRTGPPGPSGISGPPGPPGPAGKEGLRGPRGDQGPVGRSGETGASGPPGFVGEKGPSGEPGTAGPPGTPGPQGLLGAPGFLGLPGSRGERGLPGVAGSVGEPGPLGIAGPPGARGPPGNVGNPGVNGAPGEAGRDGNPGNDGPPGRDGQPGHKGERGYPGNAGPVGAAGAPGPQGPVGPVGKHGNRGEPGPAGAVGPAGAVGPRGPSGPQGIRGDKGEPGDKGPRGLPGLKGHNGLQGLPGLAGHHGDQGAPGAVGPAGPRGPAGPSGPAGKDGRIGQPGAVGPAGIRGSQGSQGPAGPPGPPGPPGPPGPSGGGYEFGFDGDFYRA
Method: Collagen gels were formed in the presence of each additive at a 10:1 molar ratio, as described in EXAMPLE 15, directly on the SEM stage, processed, and imaged as described. Images at 10,000× were analyzed for fibril density calculations. Images were converted to 8-bit black and white, and threshold values for each image were determined using ImageJ software (NIH). The threshold was defined as the value where all visible fibrils are white, and all void space is black. The ratio of white to black area was calculated using MatLab software. All measurements were taken in triplicate and thresholds were determined by an observer blinded to the treatment.

collagen [4] = assay: SILY binding to collagen (Biacore surface plasmon resonance)
Method: Biacore studies were performed on a Biacore 2000 using a CM-3 chip (Biacore, Inc., Piscataway, N.J.). The CM-3 chip is coated with covalently attached carboxymethylated dextran, which allows for attachment of the substrate collagen via free amine groups. Flow cells (FCs) 1 and 2 were used, with FC-1 as the reference cell and FC-2 as the collagen immobilized cell. Each FC was activated with EDC-NHS, and 1500 RU of collagen was immobilized on FC-2 by flowing 1 mg/mL collagen in sodium acetate, pH 4, buffer at 5 μL/min for 10 min. Unreacted […] sites were capped with ethanolamine; the control FC-1 was activated and capped with ethanolamin.
To determine peptide binding affinity, SILY was dissolved in 1×HBS-EP buffer (Biacore) at varying concentrations from 100 μM to 1.5 μm in 2-fold dilutions. […] The first 10 injections were buffer injections, which help to prime the system, followed by randomized sample injections, run in triplicate. Analysis was performed using BIAevaluation software (Biacore).

[5] = system: Human aortic smooth muscle cells; assay: Collagen remodeling: hydroxyproline content in medium of cell-seeded collagen gels; format: cell-based; conditions: up to 30 days
Method: Following a method by Grassl, et al. (Grassl, et al., Journal of Biomedical Materials Research 2002, 60, (4), 607-612), which is herein incorporated in its entirety, collagen gels with or without synthetic PG mimics were formed as described in EXAMPLE 15. Human aortic smooth muscle cells (Cascade Biologics, Portland, Oreg.) were seeded within collagen gels by adding 4×10^6 cells/mL to the neutralized collagen solution prior to incubation. The cell-collagen solutions were pipetted into an 8-well Lab-Tek chamber slide and incubated in a humidified 37° C. and 5% CO2 incubator. After gelation, the cell-collagen gels will be covered with 1 mL Medium 231 as prescribed by Cascade. Every 3-4 days, the medium was removed from the samples and the hydroxyproline content measured by a standard hydroxyproline assay (Reddy, 1996).
To measure degraded collagen in the supernatant medium, the sample was lyophilized, the sample hydrolyzed in 2 M NaOH at 120° C. for 20 min. After cooling, free hydroxyproline was oxidized by adding chloramine-T (Sigma) and reacting for 25 min at room temperature. Ehrlich's aldehyde reagent (Sigma) was added and allowed to react for 20 min at 65° C. and followed by reading the absorbance at 550 nm on an M-5 spectrophotometer (Molecular Devices). […] Cultures were incubated for up to 30 days and three samples of each treatment measured. […]

[6] = system: Human platelets on Type I fibrillar collagen; assay: Inhibition of platelet activation on fibrillar collagen after 24 hour rinse (PF4, NAP2); format: cell-based; conditions: 50 μM, incubated 15 min, rinsed for 24 hours
Method: Type I fibrillar collagen from Chronolog was diluted in isotonic glucose to a concentration of 50 μg/mL. 50 μL of collagen solution was added to each well of a high bind 96-well plate. The plate was incubated overnight at 4° C., and then rinsed 3× with 1×PBS. For microplate assays, peptidoglycan was diluted in 1×PBS at concentrations between 0.0001 μM to 100 μM and 50 μL solution was added to the collagen coated wells. DS, peptide, or 1×PBS were also added to collagen coated wells as controls. Treatments were incubated at 37° C. with shaking at 200 rpm for 15 min. Wells were then rinsed of unbound treatment by removing the treatment solution, adding PBS, and shaking the wells for 24 hours. During the 24 hours, PBS solution was changed 3 times.
Human whole blood was collected from healthy volunteers by venipuncture. The first 5 mL of blood was discarded and approximately 20 mL was then collected into citrated glass vacutainers (BD Bioscience). Blood was centrifuged in the glass tube for 20 min at 200 g at 25° C. The top layer of the centrifuged blood, the platelet rich plasma (PRP), was used for platelet experiments.
PRP (50 μL/well) was added to the microplate for 1 hour at room temperature without shaking. After 1 hour of incubation, 45 μL of PRP was removed from each well and added to a microcentrifuge tube containing […] ETP (107 mM EDTA, 12 mM theophylline, and 2.8 mM prostaglandin E1) to inhibit further platelet activation. These tubes were spun at 4° C. for 30 min at 2000 g to pellet the platelets. The supernatant (platelet serum) was collected for ELISA studies to test for the presence of platelet activation markers PF-4 and NAP2. Sandwich ELISAs were utilized in order to detect each protein. The components for both sandwich ELISAs were purchased from R&D Systems and the provided protocols were followed. Platelet serum was diluted 10,000 times in 1% BSA in 1×PBS for values to fall within a linear range.
Platelet activation was measured through release of platelet factor 4 (PF4) and β-thromboglobulin (NAP2). […] Since the high SILY/DS ratio is expected to provide higher binding affinity to the collagen surface due to multiple interactions, peptidoglycans with the higher SILY/DS ratios were prepared.
The number of peptides per DS molecule was further increased to 18 to create the peptidoglycan DS-SILY18, and the concentration of molecule needed to inhibit platelet activation was tested. […] Within solubility limits, the number of peptides can be increased to achieve maximal platelet inhibition as well as to reduce diffusion over time, where a higher level of peptidoglycans on the denuded vessel wall is sustained.

collagen [7] = molecular target: T1, collagen; assay: Collagen fibrillogenesis by turbidity at 313 nm; format: biochemical; conditions: 1:1 collagen:additive molar ratio
Method: Collagen fibrillogenesis was monitored by measuring turbidity related absorbance at 313 nm providing information on rate of fibrillogenesis and fibril diameter. Gel solutions were prepared as described in EXAMPLE 15 (4 mg/mL collagen, 10:1 collagen:treatment, unless otherwise indicated) and 50 uL/well were added at 4° C. to a 384-well plate. The plate was kept at 4° C. for 4 hours before initiating fibril formation. A SpectraMax M5 at 37° C. was used to measure absorbance at 313 nm at 30 s intervals for 6 hours.
A fibrillogenesis assay as described for DS-SILY, EXAMPLE 17, performed with the conjugate DS-Dc13.

- Kd (Fibrillar collagen): 118 nM
Substance: DS-SILY4: dermatan sulfate with 4 SILY peptides via BMPH; tested biotin labeled (RRANAALKAGELYKSILYGC-NH2; also: Cys thiol coupled via BMPH crosslinker to oxidized dermatan sulfate, 4 peptides per glycan, biotin label in tested form, position not given here)

Substance: Decorin
- fibril diameter (collagen [1]): significantly decrease fibril diameter over collagen or collagen+DS; also recorded: significantly decrease fibril diameter over collagen or collagen+dermatan sulfate
- gel compaction, day 7 ([2]; Day 7): significant against all samples
- gel compaction, days 3 and 5 ([2]; Days 3 and 5): significant relative to collagen and DS

- fibril density (ratio of fibril containing area to void space) (collagen [3]): significantly greater fibril density
- binding to collagen (association/disassociation curves) (collagen [4]; 100 μM to 1.5 μm in 2-fold dilutions): binds reversibly with collagen
- Kd (collagen [4]; calculated from the on-off binding kinetics, collagen on CM-3 chip): 1200 nM
Substance: RRANAALKAGELYKSILYGC
- collagen degradation by hydroxyproline content in cell medium [5]: greater collagen degradation compared to collagen alone
- inhibition of platelet activation (release of PF4 and NAP2) [6]: little to no effect on inhibiting platelet activation

Substance: SYIRIADTNITGC [Dc13]
- collagen degradation by hydroxyproline content in cell medium [5]: greater collagen degradation compared to collagen alone
- fibrillogenesis (absorbance at 313 nm), free peptide (collagen [7]): little effect on fibrillogenesis compared to collagen alone
